From US11175289B2, “Application of TRPM8 protein, related peptide fragment and their antibodies” (priority 2016, dated 2021)
Ends that are not written are not given here. * marks the point of attachment. Biotin = O=C1N[C@H]2[C@H](CS[C@H]2CCCCC(=O)*)N1

Tested on: TRPM8 protein and TRPM8 related peptide fragments
Test: Antibody identification of monoclonal antibodies
Format: binding, human
Settings: monoclonal antibody against the named antigen
Source text: Freund's adjuvant is adopted for respectively immunizing the mice.
2. Detection of TRPM8 antibody: utilizing a radioimmunoassay (RIA) method.

Substance | Affinity | Specificity
SEEMRHRFRQLDTKLNDLKG (HUMAN) [T-14] | 10^12 L/mol | High
Biotin-FKNEDNETLAWEGVMKENYL [T-2] | 10^12 L/mol | High
FTGNESKPLCVELDEHNLPRFPE (HUMAN) [T-15] | 10^12 L/mol | High
CKEKN MESSV CCFKN EDNET (CKEKNMESSVCCFKNEDNET; HUMAN) [T-7] | 10^12 L/mol | High
Biotin-LTVIKMEEAGDEIVSNA [T-6] | 10^12 L/mol | High
NRRNDTLDSTRTLYSSASRSTDLSYS (HUMAN) [T-16] | 10^12 L/mol | High
CEMDI ELHDV SPITRH (CEMDIELHDVSPITRH; HUMAN) [T-12] | 10^12 L/mol | High
VEVEDALTSSAVKEKLVRF (HUMAN) [T-17] | 10^12 L/mol | High
EMDIELHDVSPITRH (HUMAN) [T-18] | 10^12 L/mol | High
Biotin-DGTTYDFAHCTFTGNESKPL [T-3] | 10^12 L/mol | High
VEVED ALTSS AVKEK LVRFC (VEVEDALTSSAVKEKLVRFC; HUMAN) [T-11] | 10^12 L/mol | High
Biotin-DEVRQWYVNGVNYFTD [T-5] | 10^12 L/mol | High
Biotin-VSRNLGPKIIMLQ [T-4] | 10^12 L/mol | High
CFTGNE SKPLCV ELDEH NLPRFPE (CFTGNESKPLCVELDEHNLPRFPE; HUMAN) [T-9] | 10^12 L/mol | High
NRRND TLDST RTLYSS (NRRNDTLDSTRTLYSS; HUMAN) [T-10] | 10^12 L/mol | High
KEKNMESSVCCFKNEDNET (HUMAN) [T-13] | 10^12 L/mol | High
CSEEM RHRFR QLDTK LNDLKG (CSEEMRHRFRQLDTKLNDLKG; HUMAN) [T-8] | 10^12 L/mol | High
